The values that follow come from US20200270237A1 (priority 2017, published 2020).

Sequence of Human α2δ-1 Subunit of Cav2.2 Calcium Channel (P54289 25-1103): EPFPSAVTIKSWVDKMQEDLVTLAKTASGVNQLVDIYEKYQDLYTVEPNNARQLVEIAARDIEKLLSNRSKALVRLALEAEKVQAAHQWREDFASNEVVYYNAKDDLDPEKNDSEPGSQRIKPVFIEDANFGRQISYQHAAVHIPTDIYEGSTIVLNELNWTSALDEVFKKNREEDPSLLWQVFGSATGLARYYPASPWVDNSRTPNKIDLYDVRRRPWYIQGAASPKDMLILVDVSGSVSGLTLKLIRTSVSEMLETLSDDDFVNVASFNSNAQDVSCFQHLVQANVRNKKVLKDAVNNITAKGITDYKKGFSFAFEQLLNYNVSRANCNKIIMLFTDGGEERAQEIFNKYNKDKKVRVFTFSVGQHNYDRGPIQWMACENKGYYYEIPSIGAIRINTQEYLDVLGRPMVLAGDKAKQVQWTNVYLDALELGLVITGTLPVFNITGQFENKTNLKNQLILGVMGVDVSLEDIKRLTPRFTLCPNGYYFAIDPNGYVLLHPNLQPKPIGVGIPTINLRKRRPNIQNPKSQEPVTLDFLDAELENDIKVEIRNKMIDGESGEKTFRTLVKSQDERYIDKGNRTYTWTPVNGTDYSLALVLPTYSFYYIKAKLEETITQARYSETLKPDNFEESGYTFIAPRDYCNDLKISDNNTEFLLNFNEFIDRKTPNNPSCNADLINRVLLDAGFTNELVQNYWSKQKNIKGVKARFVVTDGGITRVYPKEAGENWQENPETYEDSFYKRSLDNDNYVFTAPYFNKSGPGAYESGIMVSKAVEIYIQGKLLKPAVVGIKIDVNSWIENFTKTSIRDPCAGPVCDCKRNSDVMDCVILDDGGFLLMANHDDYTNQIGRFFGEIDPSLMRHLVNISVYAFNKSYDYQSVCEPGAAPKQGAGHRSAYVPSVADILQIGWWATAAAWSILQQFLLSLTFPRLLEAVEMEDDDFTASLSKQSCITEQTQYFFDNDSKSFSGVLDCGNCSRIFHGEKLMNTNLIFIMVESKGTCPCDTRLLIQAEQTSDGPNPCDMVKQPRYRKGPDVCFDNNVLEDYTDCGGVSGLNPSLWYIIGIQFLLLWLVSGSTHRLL

One test concerns the target Human α2δ-1 Subunit of Cav2.2 Calcium Channel (Homo sapiens, UniProt P54289). Briefly: biochemical. The test is classed as binding.
Settings: not given
`CNCCC(Oc1cccc(CN2CCC(c3ccccc3)(N(C)C)CC2)c1)c1cccs1` (centres unmarked) [Example 2, N,N-dimethyl-1-(3-(3-(methylamino)-1-(thiophen-2-yl)propoxy)benzyl)-4-phenylpiperidin-4-amine]: the Ki is 100 to 500 nM.
With `CNCCC(Oc1cccc(CN2CCC(c3cccc(O)c3)CC2)c1)c1cccs1` (centres unmarked) [Example 3, 3-(1-(3-(3-(Methylamino)-1-(thiophen-2-yl)propoxy)benzyl)piperidin-4-yl)phenol], the Ki lay within 100 to 500 nM.
Take `CNCCC(Oc1cccc(CN2CCC(c3cccc(O)c3)(N(C)C)CC2)c1)c1cccs1` (centres unmarked) [Example 5, 3-(4-(Dimethylamino)-1-(3-(3-(methylamino)-1-(thiophen-2-yl)propoxy)benzyl)piperidin-4-yl)phenol]: the Ki lay within 100 to 500 nM.
On the same count and under the same terms, the value for `CNCC[C@H](Oc1cccc(CN2CCC(c3cccc(O)c3)(N(C)C)CC2)c1)c1cccs1` [Example 14, (S)-3-(4-(dimethylamino)-1-(3-(3-(methylamino)-1-(thiophen-2-yl)propoxy)benzyl)piperidin-4-yl)phenol] was 100 to 500 nM; that for `CNCC[C@H](Oc1cccc(CN2CCC(c3ccccc3)(N(C)C)CC2)c1)c1cccs1` [Example 15, (S)-N,N-dimethyl-1-(3-(3-(methylamino)-1-(thiophen-2-yl)propoxy)benzyl)-4-phenylpiperidin-4-amine] was 500 to 3000 nM; that for `CNCC[C@@H](Oc1cccc(CN2CCC(c3ccccc3)(N(C)C)CC2)c1)c1cccs1` [Example 16, (R)-N,N-dimethyl-1-(3-(3-(methylamino)-1-(thiophen-2-yl)propoxy)benzyl)-4-phenylpiperidin-4-amine] was 500 to 3000 nM.
For `CNCC[C@@H](Oc1cccc(CN2CCC(c3cccc(O)c3)(N(C)C)CC2)c1)c1cccs1` [Example 17, (R)-3-(4-(dimethylamino)-1-(3-(3-(methylamino)-1-(thiophen-2-yl)propoxy)benzyl)piperidin-4-yl)phenol], the Ki was in the range of 100 to 500 nM.
Turning to `CNCC[C@H](OCc1cccc(CN2CCC(c3cccc(O)c3)(N(C)C)CC2)c1)c1cccs1` [Example 23, (S)-3-(4-(dimethylamino)-1-(3-((3-(methylamino)-1-(thiophen-2-yl)propoxy)methyl)benzyl)piperidin-4-yl)phenol], the Ki was greater than 3000 nM.
As to `CNCC[C@@H](OCc1cccc(CN2CCC(c3cccc(O)c3)(N(C)C)CC2)c1)c1cccs1` [Example 24, (R)-3-(4-(dimethylamino)-1-(3-((3-(methylamino)-1-(thiophen-2-yl)propoxy)methyl)benzyl)piperidin-4-yl)phenol], the Ki was in the range of 500 to 3000 nM.

The same test, now with this note: Table 1; human α2δ-1 enriched membranes, 15 nM [3H]-Gabapentin; read-out: Ki (nM) alpha2delta Hum.
Take `CNCCC(Oc1cccc(C(=O)N2CCC(c3ccccc3)(N(C)C)CC2)c1)c1cccs1` (centres unmarked) [Example 7, (4-(Dimethylamino)-4-phenylpiperidin-1-yl)(3-(3-(methylamino)-1-(thiophen-2-yl)propoxy)phenyl)methanone]: the Ki was in the range of 500 to 3000 nM.
The same measure, in the same setting: then `CNCCC(OCc1cccc(CN2CCC(c3ccccc3)(N(C)C)CC2)c1)c1cccs1` (centres unmarked) [Example 20, N,N-dimethyl-1-(3-((3-(methylamino)-1-(thiophen-2-yl)propoxy)methyl)benzyl)-4-phenylpiperidin-4-amine], with 500 to 3000 nM.
For the molecule `CNCC[C@H](OCc1cccc(CN2CCC(c3ccccc3)(N(C)C)CC2)c1)c1cccs1` [Example 21, (S)-N,N-dimethyl-1-(3-((3-(methylamino)-1-(thiophen-2-yl)propoxy)methyl)benzyl)-4-phenylpiperidin-4-amine], the Ki is greater than 3000 nM.
In the case of `CNCC[C@@H](OCc1cccc(CN2CCC(c3ccccc3)(N(C)C)CC2)c1)c1cccs1` [Example 22, (R)-N,N-dimethyl-1-(3-((3-(methylamino)-1-(thiophen-2-yl)propoxy)methyl)benzyl)-4-phenylpiperidin-4-amine], the Ki lay in the range of 500 to 3000 nM.

Staying with this test, now noted: Table 2 (dual compounds); human α2δ-1 enriched membranes, 15 nM [3H]-Gabapentin; read-out: Ki (nM) alpha2delta Hum.
Turning to `CNCCC(Oc1cccc(C(=O)N2CCC(c3ccccc3)(N(C)C)CC2)c1)c1cccs1` (centres unmarked) [Example 7, (4-(Dimethylamino)-4-phenylpiperidin-1-yl)(3-(3-(methylamino)-1-(thiophen-2-yl)propoxy)phenyl)methanone], the Ki is 500 to 3000 nM.
As to `CNCCC(OCc1cccc(CN2CCC(c3ccccc3)(N(C)C)CC2)c1)c1cccs1` (centres unmarked) [Example 20, N,N-dimethyl-1-(3-((3-(methylamino)-1-(thiophen-2-yl)propoxy)methyl)benzyl)-4-phenylpiperidin-4-amine], the Ki fell in the range of 500 to 3000 nM.
As to `CNCC[C@H](OCc1cccc(CN2CCC(c3ccccc3)(N(C)C)CC2)c1)c1cccs1` [Example 21, (S)-N,N-dimethyl-1-(3-((3-(methylamino)-1-(thiophen-2-yl)propoxy)methyl)benzyl)-4-phenylpiperidin-4-amine], the Ki was greater than 3000 nM.
Turning to `CNCC[C@@H](OCc1cccc(CN2CCC(c3ccccc3)(N(C)C)CC2)c1)c1cccs1` [Example 22, (R)-N,N-dimethyl-1-(3-((3-(methylamino)-1-(thiophen-2-yl)propoxy)methyl)benzyl)-4-phenylpiperidin-4-amine], the Ki was 500 to 3000 nM.

The same test, now with this note: read-out: Ki (nM) alpha2delta Hum.
With `CNCCC(Oc1cccc(CN2C[C@@H](C)N[C@@H](C)C2)c1)c1cccs1` (some centres unmarked) [Example 1, 3-(3-((3,5-Dimethylpiperazin-1-yl)methyl)phenoxy)-N-methyl-3-(thiophen-2-yl)propan-1-amine], the Ki was in the range of 500 to 3000 nM.
On to `CNCCC(Oc1cccc(CN2CCNCC2)c1)c1cccs1` (centres unmarked) [Example 6, N-methyl-3-(3-(piperazin-1-ylmethyl)phenoxy)-3-(thiophen-2-yl)propan-1-amine], for which the Ki was in the range of 500 to 3000 nM.
Consider `CNCCC(Oc1cccc(C(=O)N2CCCCC2)c1)c1ccccc1` (centres unmarked) [Example 8, (3-(3-(Methylamino)-1-phenylpropoxy)phenyl)(piperidin-1-yl)methanone], for which the Ki was greater than 3000 nM.
Consider `CNCCC(Oc1cccc(C(=O)N2CCN(C)CC2)c1)c1ccccc1` (centres unmarked) [Example 9, (3-(3-(Methylamino)-1-phenylpropoxy)phenyl)(4-methylpiperazin-1-yl)methanone], for which the Ki was greater than 3000 nM.
For `CNCCC(Oc1cccc(C(=O)N2CCOCC2)c1)c1ccccc1` (centres unmarked) [Example 10, (3-(3-(Methylamino)-1-phenylpropoxy)phenyl)(morpholino)methanone], the Ki is greater than 3000 nM.
As to `CNCCC(Oc1cccc(C(=O)N2CCN(C)CC2)c1)c1cccs1` (centres unmarked) [Example 11, (3-(3-(Methylamino)-1-(thiophen-2-yl)propoxy)phenyl)(4-methylpiperazin-1-yl)methanone], the Ki is greater than 3000 nM.
`CC[C@]1(N2CCN(CCc3cccc(O[C@H](CCNC)c4ccccc4)c3)CC2)CCOC(C)(C)C1` [Example 12a, (R)-3-(3-(2-(4 ((S)-4-ethyl-2,2-dimethyltetrahydro-2H-pyran-4-yl)piperazin-1-yl)ethyl)phenoxy)-N-methyl-3-phenylpropan-1-amine]: the Ki is 500 to 3000 nM.
Take `CC[C@@]1(N2CCN(CCc3cccc(O[C@H](CCNC)c4ccccc4)c3)CC2)CCOC(C)(C)C1` [Example 12b, (R)-3-(3-(2-(4-((R)-4-ethyl-2,2-dimethyltetrahydro-2H-pyran-4-yl)piperazin-1-yl)ethyl)phenoxy)-N-methyl-3-phenylpropan-1-amine]: the Ki is 500 to 3000 nM.
Same read-out and setting: the value for `CNCCC(Oc1cccc(-n2nc(C)cc2C)c1)c1ccccc1` (centres unmarked) [Example 13] was greater than 3000 nM; that for `CNCC[C@H](Oc1cccc(CN2CCN([C@]3(C(=O)c4ccccn4)CCOC(C)(C)C3)CC2)c1)c1cccs1` [Example 18, ((R)-2,2-dimethyl-4-(4-(3-((S)-3-(methylamino)-1-(thiophen-2-yl)propoxy)benzyl)piperazin-1-yl)tetrahyrdro-2H-pyran-4-yl)(pyridin-2-yl)methanone] was greater than 3000 nM; that for `CNCC[C@H](Oc1cccc(CN2CCN([C@@]3(C(=O)c4ccccn4)CCOC(C)(C)C3)CC2)c1)c1cccs1` [Example 19, ((S)-2,2-dimethyl-4-(4-(3-((S)-3-(methylamino)-1-(thiophen-2-yl)propoxy)benzyl)piperazin-1-yl)tetrahydro-2H-pyran-4-yl)(pyridin-2-yl)methanone] was greater than 3000 nM.
As to `CNCC[C@@H](OCc1cccc(CN2CCN([C@@]3(C(=O)c4ccccn4)CCOC(C)(C)C3)CC2)c1)c1ccccc1` [Example 28, ((S)-2,2-dimethyl-4-(4-(3-(((R)-3-(methylamino)-1-phenylpropoxy)methyl)benzyl)piperazin-1-yl)tetrahydro-2H-pyran-4-yl)(pyridin-2-yl)methanone], the Ki was 500 to 3000 nM.
